The numbers were not newly measured in paper PMC3918212 (Biopolymers, 2013), which cites them from elsewhere.

For this series the following is noted: PBS at 37 °C.

Consider MATLEKLMKAFESLKSF [htt^NT], for which the “Aggregation behaviour on incubation” value is on record as “slow, concentration dependent conversion into an α-helix rich, sedimentable oligomer”.
